# Test results: US11666558B2, “Methods of treating intraocular pressure with activators of Tie-2” (EyePoint Pharmaceuticals, Inc., priority 2015, dated 2023)
# Read-outs that look alike come from different tables or passages of the source.
# Experiment: Ocular tissue concentrations (aqueous humor, vitreous humor, iris, retina, choroid, cornea) after topical ocular, subcutaneous and intravitreal administration
# Assay type: in vivo, New Zealand White rabbits
# Conditions: New Zealand White, rabbit; for concentration at 6 h / concentration at 24 h / concentration at 48 h / concentration at 72 h: other: intravitreal, 2.5 mg/eye
# Method: To measure the concentration of Compound 1 in plasma and ocular tissues following topical ocular, subcutaneous, and intravitreal administration, New Zealand White rabbits were administered Compound 1, and plasma and ocular samples were collected at pre-determined time points. Compound 1 formulations were prepared fresh on each day of dosing.
# Ocular tissue samples from both eyes of each animal were collected and weights were recorded. Plasma and ocular tissue sample concentrations of Compound 1 were determined by LC-MS/MS.
# New Zealand White rabbits weighing 2.5 to 3.5 kg were used on this study. Rabbits were housed one per cage. Animals were not fasted and only healthy animals with no ocular illness were used. Two rabbits per group were sacrificed at each of four ocular tissue sampling time points for a total of eight rabbits per group.
# Animals were anesthetized for ocular (topical) and intravitreal dosing following the 12IA7 IACUC protocol. Each rabbit received a bolus dose of test formulation either via topical ocular administration 3 times daily on Days 1 and 2 (at 0, 6, and 12 hours), and once on Day 3 (at 0 hours) into both eyes; via intravitreal administration into both eyes once on Day 1 (at 0 hours); or via subcutaneous administration 2 times daily on Days 1 and 2 (at 0 and 8 hours) and once daily on Day 3 (at 0 hours). Doses were given within an approximately 1 hour window each day where applicable.
# On Day 1, for intravitreal administration, or on Day 3, for topical ocular and subcutaneous administration, at the appropriate ocular tissue collection time points, animals were euthanized and both eyes were enucleated immediately. Following enucleation, each eye was rinsed with phosphate-buffered saline. Ocular tissue samples from both eyes of each animal were collected at predetermined time points and weights were recorded. All the samples were frozen immediately on dry ice, and stored at −60° C. to −80° C. pending bioanalysis.
# An LC-MS/MS method was developed for the determination of Compound 1 in rabbit aqueous tissues (plasma, aqueous and vitreous humor) and solid ocular tissue samples. A pre-study standard curve was analyzed to determine the specificity, range, and lower limit of quantitation of the method. Plasma and tissue homogenate study samples were extracted and analyzed. All the samples were treated identically to the standards.
# One eight-point standard curve was used in each analytical batch. To be accepted, each batch must have had at least five of eight standards with accuracy within ±20% of nominal, except at the lower limit of quantification (LLOQ), where ±25% was acceptable.
# Concentration versus time data is plotted in FIGS. 3-16. All data are expressed as ng/g of the free drug. Samples that were below the limit of quantitation (0.2 ng/mL) were not used in the calculation of averages.
# [1] = iris homogenate, Iris homogenate, OD, sodium salt, intravitreal 2.5 mg/eye, Group 4, read-out: Iris Conc. (ng/mL) OD
# [2] = iris homogenate, Iris homogenate, OS, sodium salt, intravitreal 2.5 mg/eye, Group 4, read-out: Iris Conc. (ng/mL) OS
# [3] = iris homogenate, Iris homogenate, left eye, intravitreal 2.5 mg/eye (group 5), individual animals, read-out: Conc. (ng/mL) OS
# [4] = iris homogenate, Iris homogenate, right eye, intravitreal 2.5 mg/eye (group 5), individual animals, read-out: Conc. (ng/mL) OD
# [5] = iris homogenate, subcutaneous, 5 mg/kg/dose, Iris homogenate, OD, sodium salt, subcutaneous 5 mg/kg/dose, Group 2, read-out: Iris Conc. (ng/mL) OD
# [6] = iris homogenate, subcutaneous, 5 mg/kg/dose, Iris homogenate, OS, free acid, subcutaneous 5 mg/kg/dose, Group 3, read-out: Iris Conc. (ng/mL) OS
# [7] = iris homogenate, subcutaneous, 5 mg/kg/dose, Iris homogenate, OS, sodium salt, subcutaneous 5 mg/kg/dose, Group 2, read-out: Iris Conc. (ng/mL) OS
# [8] = iris homogenate, subcutaneous, 5 mg/kg/dose, TABLE 16: Iris homogenate, OS, free acid, subcutaneous 5 mg/kg/dose, Group 3, read-out: Iris Conc. (ng/mL) OS
# [9] = iris, Iris, OD, sodium salt, intravitreal 2.5 mg/eye, Group 4, read-out: Iris Conc. (ng/g) OD
# [10] = iris, Iris, OS, sodium salt, intravitreal 2.5 mg/eye, Group 4, read-out: Iris Conc. (ng/g) OS
# [11] = iris, Iris, average, intravitreal 2.5 mg/eye (group 5), read-out: Avg.
# [12] = iris, Iris, left eye, intravitreal 2.5 mg/eye (group 5), individual animals, read-out: Conc. (ng/g) OS
# [13] = iris, Iris, right eye, intravitreal 2.5 mg/eye (group 5), individual animals, read-out: Conc. (ng/g) OD
# [14] = iris, Iris, sodium salt, intravitreal 2.5 mg/eye, Group 4, read-out: Iris Avg.
# [15] = iris, subcutaneous, 5 mg/kg/dose, Iris, OD, sodium salt, subcutaneous 5 mg/kg/dose, Group 2, read-out: Iris Conc. (ng/g) OD
# [16] = iris, subcutaneous, 5 mg/kg/dose, Iris, OS, free acid, subcutaneous 5 mg/kg/dose, Group 3, read-out: Iris Conc. (ng/g) OS
# [17] = iris, subcutaneous, 5 mg/kg/dose, Iris, free acid, subcutaneous 5 mg/kg/dose, Group 3, read-out: Iris Average
# [18] = iris, subcutaneous, 5 mg/kg/dose, Iris, sodium salt, subcutaneous 5 mg/kg/dose, Group 2, read-out: Iris Average
# [19] = iris, subcutaneous, 5 mg/kg/dose, Iris, OS, sodium salt, subcutaneous 5 mg/kg/dose, Group 2, read-out: Iris Conc. (ng/g) OS
# [20] = iris, subcutaneous, 5 mg/kg/dose, TABLE 16: Iris, OS, free acid, subcutaneous 5 mg/kg/dose, Group 3, read-out: Iris Conc. (ng/g) OS
# [21] = iris, subcutaneous, 5 mg/kg/dose, TABLE 16: Iris, free acid, subcutaneous 5 mg/kg/dose, Group 3, read-out: Iris Average
compound,measurement,setting,value
COC(=O)N[C@@H](Cc1ccccc1)C(=O)N[C@@H](Cc1ccc(NS(=O)(=O)O)cc1)c1csc(-c2cccs2)n1 [Compound 1],concentration at 4 h,"cornea, subcutaneous, 5 mg/kg/dose, TABLE 16: Cornea, OD, free acid, subcutaneous 5 mg/kg/dose, Group 3, read-out: Cornea Conc. (ng/g) OD",10.4 ng/g
same,concentration at 4 h,"cornea, subcutaneous, 5 mg/kg/dose, TABLE 16: Cornea, free acid, subcutaneous 5 mg/kg/dose, Group 3, read-out: Cornea Average",15.8 ng/g
same,concentration at 6 h,[1],35500 ng/mL
same,concentration at 6 h,[2],34000 ng/mL
same,concentration at 6 h,[3],13800 ng/mL
same,concentration at 6 h,[4],18500 ng/mL
same,concentration at 24 h,[1],6890 ng/mL
same,concentration at 24 h,[3],14100 ng/mL
same,concentration at 24 h,[4],7670 ng/mL
same,concentration at 48 h,[1],2380 ng/mL
same,concentration at 48 h,[2],1960 ng/mL
same,concentration at 48 h,[3],1950 ng/mL
same,concentration at 48 h,[4],1010 ng/mL
same,concentration at 72 h,[1],169 ng/mL
same,concentration at 72 h,[3],1800 ng/mL
same,concentration at 72 h,[4],279 ng/mL
same,concentration at 0.5 h,[5],27.7 ng/mL
same,concentration at 0.5 h,[6],4.27 ng/mL
same,concentration at 1 h,[5],11.4 ng/mL
same,concentration at 1 h,[6],4.33 ng/mL
same,concentration at 1 h,[7],8.87 ng/mL
same,concentration at 2 h,"iris homogenate, subcutaneous, 5 mg/kg/dose, Iris homogenate, 2 hr, OD, free acid, subcutaneous 5 mg/kg/dose, Group 3, read-out: Iris Conc. (ng/mL) OD",2.77 ng/mL
same,concentration at 2 h,"iris homogenate, subcutaneous, 5 mg/kg/dose, Iris homogenate, 2 hr, OS, free acid, subcutaneous 5 mg/kg/dose, Group 3, read-out: Iris Conc. (ng/mL) OS",2.68 ng/mL
same,concentration at 4 h,"iris homogenate, subcutaneous, 5 mg/kg/dose, Iris homogenate, OD, free acid, subcutaneous 5 mg/kg/dose, Group 3, read-out: Iris Conc. (ng/mL) OD",2.41 ng/mL
same,concentration at 4 hr,[5],2.12 ng/mL
same,concentration at 4 h,[6],1.54 ng/mL
same,concentration at 4 hr,[7],3.1 ng/mL
same,concentration at 0.5 h,[8],4.27 ng/mL
same,concentration at 1 h,[8],4.33 ng/mL
same,concentration at 2 h,"iris homogenate, subcutaneous, 5 mg/kg/dose, TABLE 16: Iris homogenate, 2 hr, OD, free acid, subcutaneous 5 mg/kg/dose, Group 3, read-out: Iris Conc. (ng/mL) OD",2.77 ng/mL
same,concentration at 2 h,"iris homogenate, subcutaneous, 5 mg/kg/dose, TABLE 16: Iris homogenate, 2 hr, OS, free acid, subcutaneous 5 mg/kg/dose, Group 3, read-out: Iris Conc. (ng/mL) OS",2.68 ng/mL
same,concentration at 4 h,"iris homogenate, subcutaneous, 5 mg/kg/dose, TABLE 16: Iris homogenate, OD, free acid, subcutaneous 5 mg/kg/dose, Group 3, read-out: Iris Conc. (ng/mL) OD",2.41 ng/mL
same,concentration at 4 h,[8],1.54 ng/mL
same,concentration at 6 h,[9],390000 ng/g
same,concentration at 6 h,[10],374000 ng/g
same,concentration at 6 h,[11],211000 ng/g
same,concentration at 6 h,[12],152000 ng/g
same,concentration at 6 h,[13],204000 ng/g
same,concentration at 6 h,[14],352000 ng/g
same,concentration at 24 h,[9],75800 ng/g
same,concentration at 24 h,[11],113000 ng/g
same,concentration at 24 h,[12],155000 ng/g
same,concentration at 24 h,[13],84400 ng/g
same,concentration at 24 h,[14],141000 ng/g
same,concentration at 48 h,[9],26200 ng/g
same,concentration at 48 h,[10],21600 ng/g
same,concentration at 48 h,[11],16800 ng/g
same,concentration at 48 h,[12],21400 ng/g
same,concentration at 48 h,[13],11100 ng/g
same,concentration at 48 h,[14],24600 ng/g
same,concentration at 72 h,[9],1860 ng/g
same,concentration at 72 h,[11],10300 ng/g
same,concentration at 72 h,[12],19800 ng/g
same,concentration at 72 h,[13],3070 ng/g
same,concentration at 72 h,[14],1550 ng/g
same,concentration at 0.5 h,[15],305 ng/g
same,concentration at 0.5 h,[16],47 ng/g
same,concentration at 0.5 h,[17],50.3 ng/g
same,concentration at 0.5 h,[18],459 ng/g
same,concentration at 1 h,[15],125 ng/g
same,concentration at 1 h,[16],47.6 ng/g
same,concentration at 1 h,[19],97.6 ng/g
same,concentration at 1 h,[17],58 ng/g
same,concentration at 1 h,[18],94.7 ng/g
same,concentration at 2 h,"iris, subcutaneous, 5 mg/kg/dose, Iris, 2 hr, OD, free acid, subcutaneous 5 mg/kg/dose, Group 3, read-out: Iris Conc. (ng/g) OD",30.5 ng/g
same,concentration at 2 h,"iris, subcutaneous, 5 mg/kg/dose, Iris, 2 hr, OS, free acid, subcutaneous 5 mg/kg/dose, Group 3, read-out: Iris Conc. (ng/g) OS",29.5 ng/g
same,concentration at 2 h,"iris, subcutaneous, 5 mg/kg/dose, Iris, 2 hr, free acid, subcutaneous 5 mg/kg/dose, Group 3, read-out: Iris Average",27.6 ng/g
same,concentration at 2 hr,"iris, subcutaneous, 5 mg/kg/dose, Iris, 2 hr, sodium salt, subcutaneous 5 mg/kg/dose, Group 2, read-out: Iris Average",29.7 ng/g
same,concentration at 4 h,"iris, subcutaneous, 5 mg/kg/dose, Iris, OD, free acid, subcutaneous 5 mg/kg/dose, Group 3, read-out: Iris Conc. (ng/g) OD",26.5 ng/g
same,concentration at 4 hr,[15],33.8 ng/g
same,concentration at 4 h,[16],16.9 ng/g
same,concentration at 4 hr,[19],34.1 ng/g
same,concentration at 4 h,[17],17.5 ng/g
same,concentration at 4 hr,[18],30.4 ng/g
same,concentration at 0.5 h,[20],47 ng/g
same,concentration at 0.5 h,[21],50.3 ng/g
same,concentration at 1 h,[20],47.6 ng/g
same,concentration at 1 h,[21],58 ng/g
